The nature of this data set: gradient 5% acetonitrile 3 min, to 50% in 2 min, to 85% in 15 min, held 3 min, 100 µL/min. The note with it: column: Zorbax Extend-C18 2.1 x 50 mm; eluents: water / acetonitrile, 0.1% formic acid. A digest of the protocol:
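The mobile phases were water and acetonitrile, each with 0.1% formic acid, pumped at 100 μL/min through a Zorbax Extend-C18 column (2.1 × 50 mm, 1.8 μm). Pure standards were injected as mixtures of ~100 molecules and detected by a quadrupole time-of-flight mass spectrometer in positive and negative ionization mode. Retention time came from computationally picked adduct peaks, each inspected by hand.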
Regarding `CC(=O)Nc1cccc(-c2nc(-c3ccc4c(c3)oc(=O)n4C)no2)c1C`, the RP-LC retention time stood at 750 s.
As for `O=C(NCc1ccc(N2CCOCC2)nc1)c1ccc(C(F)(F)F)cc1`, the RP-LC retention time turned out to be 642 s.
Compound `O=S(=O)(c1ccc(-c2noc(-c3ccccc3F)n2)cc1)N1CCCC1` came in with an RP-LC retention time of 1100 s.
Next, `CCCc1cc(C2CCCN2C(=O)Nc2cccc(C)c2)no1` (stereo unspecified): 945 s; `Cc1cc(=O)n(Cc2cccc(Br)c2)c(Nc2ccc(F)c(F)c2)n1`: 1270 s; `CCn1ccc(C(=O)N2[C@H]3CC[C@@H]2c2cnc(C)nc2C3)n1`: 610 s.
On to `Cc1ccc(CNC(=O)c2cc(C(C)C)n3nccc3n2)cc1`, for which the RP-LC retention time amounted to 1250 s.
`Cc1cc(N2CCN(C(=O)c3nccc4ccccc34)CC2)nc2nncn12` came in with an RP-LC retention time of 597 s.
In the case of `Cn1ncc2c(NCc3ccccc3)nc(NCc3ccccc3)nc21`, the RP-LC retention time stood at 652 s.
Next, `O=C(c1ccsc1)N1CCC(N(C(=O)Cc2ccccc2)C2CCOCC2)CC1`: 774 s.
Next, `Cc1ccc(NC(=O)N2CCCC(C)(C(=O)NCc3ccccc3C)C2)cc1` (stereo unspecified): 942 s.
With `CCN1CCN(c2ccc(NC(=O)c3ccccc3Cl)cn2)C1=O`, the RP-LC retention time amounted to 672 s.
For `O=C(CN1CCN(C(=O)c2sc3ncccc3c2-n2cccc2)CC1)N1CCCC1`, the RP-LC retention time turned out to be 607 s.
On to `COc1ccc(-c2noc(CN3C(=O)COc4ccccc43)n2)cc1OC`, for which the RP-LC retention time was 882 s.
With `CCc1nc2c(c(=O)n1CC(=O)NCc1cccs1)CN(Cc1ccccc1)CC2` the figure was 624 s; with `Cc1cc(N2CCN(C)CC2)nc2ccc(NC(=O)Nc3ccc(Br)cc3)cc12`, 609 s; with `CCOc1ccc(S(=O)(=O)N2CCC(C(=O)NCC3CCCO3)CC2)cc1` (stereo unspecified), 750 s.
The compound `COc1ccc(CNC(=O)Nc2ccc(CC(=O)NCC(F)(F)F)cc2)cc1` yielded an RP-LC retention time of 706 s.
As for `CCCCNC(=O)C1CCCN(c2nnc3c(Cl)cccn23)C1` (stereo unspecified), the RP-LC retention time was determined as 594 s.
Next, `O=C(Cc1cccc(F)c1)N1CCCC1c1nc(-c2ccc(F)cc2)no1` (stereo unspecified): 1010 s; `CCCN1C(=O)COc2ccc(-c3csc(NC(=O)C4CC4)n3)cc21`: 879 s.
Next, `Cc1nc(C(=O)NCC(=O)O)c(O)c2ccc(Oc3ccccc3)cc12`: 793 s.
As to `Cc1ccc(C)c(C(=O)NCC(C)(O)c2ccccc2)c1` (stereo unspecified), the RP-LC retention time came to 759 s.
Consider `CC(C)NC(=O)c1cn(-c2ccc(-c3nc(C(C)(C)C)no3)cn2)cn1`, for which the RP-LC retention time came out at 970 s.
In turn, `COC(=O)Nc1csc2c1NC(=O)CCCC2` yielded an RP-LC retention time of 716 s.
As to `CC(=O)OCC(=O)NCCCOc1cccc(CN2CCCCC2)c1`, the RP-LC retention time is 618 s.
`CC(C)n1cnc2cc(CNC(=O)c3ccc(C#N)cc3)ccc21` yielded an RP-LC retention time of 619 s.
With `CCCCOc1ccc(C(=O)Nc2cccc(C)n2)cc1` the figure was 840 s; with `CC1CCCCN1c1nc(-c2ccc([N+](=O)[O-])cc2)nc2ccccc12` (stereo unspecified), 948 s; with `COc1ccc(Cl)cc1NC(=O)N1CCCC(c2nnc(-c3ccccc3F)s2)C1` (stereo unspecified), 1040 s.
Next, `O=C1COc2ccc(NC(=O)c3cc(C4CC4)n(C4CCS(=O)(=O)C4)n3)cc2N1` (stereo unspecified): 652 s; `CCCCc1ccc(NC(=O)N2CCC(c3cc(N)on3)CC2)cc1`: 876 s.
In turn, `CCOC(=O)c1[nH]c(C)c(CCC(=O)N2CCC(C(=O)NC3CCCCCC3)CC2)c1C` returned an RP-LC retention time of 823 s.
With `CC(C)CC(=O)Nc1ccc(-c2nc(-c3ccc(Cl)cc3)no2)cc1` the figure was 1310 s.
In turn, `Cc1cc(C)cc(N2C(=O)CN(C3CCCC3)[C@H]3CS(=O)(=O)C[C@H]32)c1` returned an RP-LC retention time of 790 s.
With `COc1cccc(-c2nc(N3CCCCC3)ncc2C(=O)O)c1` the figure was 950 s; with `CCOC(=O)CNC(=O)N1CCN(c2nc3ccccc3n3cccc23)CC1`, 556 s; with `COc1ccc(NC(=O)C2(C)CCCCC(=O)N2)cc1F` (stereo unspecified), 690 s.
The compound `CCS(=O)(=O)N1CCOc2ccc(NC(=O)COC)cc2C1` displayed an RP-LC retention time of 654 s.
For the compound `COC(=O)c1cc(OCc2cccc(OC)c2)c2cc(OC)ccc2n1`, the RP-LC retention time was 901 s.
In the case of `C[C@H]1C2Cc3ccc(O)cc3[C@@]1(C)CCN2CC1CC1`, the RP-LC retention time came out at 669 s.
Compound `O=C(NCc1ccc(Cl)cc1)c1c(O)c2cccnc2n(-c2ccc(F)cc2)c1=O` showed an RP-LC retention time of 1230 s.
For the compound `CC(=O)Nc1nnc(C2=COCCO2)o1`, the RP-LC retention time amounted to 515 s.
With `COc1ccc(C(=O)N2c3nc(-c4ccccc4)nn3C3(CCCCC3)[C@@H]3CCCC[C@@H]32)cc1OC`, the RP-LC retention time was 1420 s.
`CSc1ncccc1C(=O)N1CCCn2nc(-c3cccc(Cl)c3)cc2C1`: the RP-LC retention time amounted to 827 s.
In turn, `Cc1noc(-c2nn(C)c3c2CN(C(=O)Nc2ccc(C(F)(F)F)cc2)CC3)n1` returned an RP-LC retention time of 847 s.
Compound `O=C(NCc1ccco1)N1CC2CN(S(=O)(=O)c3cccc(F)c3)CC(C1)O2` returned an RP-LC retention time of 744 s.
In turn, `CCN1CCCCc2cc(C(=O)NCC3CCN(CC(C)C)C3)sc21` (stereo unspecified) displayed an RP-LC retention time of 718 s.
With `O=C(c1cc[nH]c(=O)c1)N1C[C@@H](COCC2CC2)[C@H](c2ccncc2)C1` the figure was 555 s; with `Oc1ccc(Cl)cc1C1CC(c2ccc(Cl)cc2)=NC2(CCN(Cc3ccccc3)CC2)N1` (stereo unspecified), 791 s; with `O=S(=O)(NCc1nnnn1-c1ccc(Cl)cc1)c1ccc2c(c1)OCCO2`, 773 s.
In the case of `COc1cc(NC(=O)NCCc2c(C)nn(C)c2C)cc(OC)c1OC`, the RP-LC retention time stood at 610 s.
For `CCCS(=O)(=O)N(C)C1CCc2nn(Cc3ccccc3)c(=O)n2CC1` (stereo unspecified), the RP-LC retention time came out at 755 s.
With `Cc1ccc(-c2nc3ncccn3c2NCc2ccccc2)cc1`, the RP-LC retention time is 729 s.
For the compound `COc1cc(F)ccc1-c1ccnc2ncnn12`, the RP-LC retention time turned out to be 681 s.
In the case of `CNC(=O)N1CC(C)Oc2ccc(Cl)cc21` (stereo unspecified), the RP-LC retention time was 806 s.
The compound `COc1ccccc1-c1noc(C2CCCN2C(=O)Nc2cccc(C)c2)n1` (stereo unspecified) came in with an RP-LC retention time of 881 s.
Consider `COc1cccc(CN2N=C(C(=O)N3CCCC3)S(=O)(=O)c3ccccc32)c1`, for which the RP-LC retention time was found to be 843 s.
Take `COc1ccc(-c2noc(CC(=O)NCc3ccccc3)c2-c2ccc(OC)cc2)cc1`: the RP-LC retention time came out at 924 s.
With `CCc1nnc(-c2ccc(NC(=O)c3cc4ccccc4o3)cc2)o1` the figure was 826 s; with `O=c1n(CCc2ccccc2)nc2ccc(S(=O)(=O)N3CCOCC3)cn12`, 809 s; with `CCOC(=O)c1ccc(Nc2c(-c3ccc(SC)cc3)nc3cnccn23)cc1`, 943 s.
`CCn1nnc(NCc2ccc(-c3cc(Cl)ccc3Cl)o2)n1` yielded an RP-LC retention time of 1110 s.
`CCc1ccccc1NS(=O)(=O)c1cc(-c2nc(C(C)(C)C)cs2)cs1` registered an RP-LC retention time of 1290 s.
`CCc1ccc(C(O)CN2CCN(c3ccccn3)CC2)cc1` (stereo unspecified) gave an RP-LC retention time of 572 s.
Turning to `COc1ccc(NC(=O)c2nnn(-c3ccc(C)c(F)c3)c2C)cc1Cl`, the RP-LC retention time is 1040 s.
Take `CCN1C(=O)c2ccccc2Sc2cc(-c3noc(CNC(=O)c4ccco4)n3)ccc21`: the RP-LC retention time is 865 s.
Consider `CCNC(=O)C1CCCN(c2nc3ncn(CC(=O)Nc4ccc(F)c(F)c4)c(=O)c3s2)C1` (stereo unspecified), for which the RP-LC retention time came out at 670 s.
Consider `Cc1cccc(-c2nnc(CC(=O)NC3CCCC3)o2)c1`, for which the RP-LC retention time is 658 s.
Next, `CCOc1cc(=O)n2c(c1C(=O)N1CCN(C3CCCCC3)CC1)CCCCC2`: 590 s; `CCn1cnc(S(=O)(=O)N2CCCC(C(=O)Nc3ccc(F)c(Cl)c3)C2)c1` (stereo unspecified): 830 s; `CC(C)c1cc(=O)n(CC(=O)NCCn2nc(-c3cccs3)ccc2=O)cn1`: 619 s.
Take `COC(=O)c1ccc(C2CC(=O)NC3=C2C(=O)CC(c2ccccc2Cl)C3)cc1` (stereo unspecified): the RP-LC retention time was found to be 881 s.
Next, `CCC(C(=O)NCCN1CCOCC1)n1c2ccccc2c2cnn(C)c(=O)c21` (stereo unspecified): 617 s; `CCc1cccc(C)c1NC(=O)C1CCN(S(=O)(=O)c2ccc3c(c2)NC(=O)CO3)CC1`: 818 s; `CCn1c(=O)c(N2CCC(NC(=O)NCCc3ccccc3)CC2)nc2cccnc21`: 824 s.
With `COC(=O)c1cc(-c2c[nH]cc2C(=O)OCc2ccccc2)cn1S(=O)(=O)c1ccc(C)cc1` the figure was 1060 s; with `COc1ccc(-c2c(C(=O)N(C)Cc3ccco3)nc3ccccn23)cc1`, 698 s; with `CCN(CC)S(=O)(=O)c1ccc2c(c1)CC(C(=O)NCCN1CCCCCC1)N2C(C)=O` (stereo unspecified), 631 s.
As for `O=C(CN1CC=C(c2cnn(-c3ccccc3)c2)CC1)N1CCN(c2ccccc2F)CC1`, the RP-LC retention time worked out at 732 s.
For the compound `COc1ncccc1CNC(=O)NCc1ccc(F)cc1`, the RP-LC retention time worked out at 668 s.

These data come from the METLIN SMRT retention time set (Domingo-Almenara et al. 2019).
